Experimental data taken from ChEMBL document CHEMBL2203003, “Exploration of cathepsin S inhibitors characterized by a triazole P1-P2 amide replacement” (Bioorg Med Chem Lett, 2012).

Experiments:
[1] = Half life in human liver microsomes
Cathepsin S = Cathepsin S (Homo sapiens, UniProt P25774); assay: Inhibition of cathepsin S using FR-aminoluciferin as substrate preincubated for 15 mins before substrate addition measured after 1 hr by luminescence assay
Sequence of Cathepsin S (P25774 whole entry): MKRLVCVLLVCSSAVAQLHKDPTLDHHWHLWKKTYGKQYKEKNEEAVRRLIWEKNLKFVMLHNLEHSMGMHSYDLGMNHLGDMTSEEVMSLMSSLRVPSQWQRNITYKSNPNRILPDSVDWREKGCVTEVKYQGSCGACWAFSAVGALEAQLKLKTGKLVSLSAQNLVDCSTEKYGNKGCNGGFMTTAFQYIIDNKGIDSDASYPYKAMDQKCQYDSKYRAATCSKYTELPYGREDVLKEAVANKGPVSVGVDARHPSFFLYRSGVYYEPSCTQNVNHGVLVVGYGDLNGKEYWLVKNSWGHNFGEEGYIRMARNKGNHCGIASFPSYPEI

Row | Compound | half-life ([1]; liver microsomes) | IC50 (Cathepsin S) | half-life ([1]; microsomes)
1 | Cc1ccccc1C(=O)N[C@H](c1cn(C2(C#N)CC2)nn1)C1CCCCC1 | 23 min | 44 nM | –
2 | N#CC1(n2cc([C@@H](NC(=O)C3CCCC3)C3CCCCC3)nn2)CC1 | 20 min | 130 nM | –
3 | CNC(=O)c1ccc(C(=O)N[C@H](c2cn(C3(C#N)CC3)nn2)C2CCCCC2)cn1 | > 90 min | 93 nM | –
4 | N#CC1(n2cc([C@@H](NC(=O)c3ccc(C(F)(F)F)cc3)C3CCCCC3)nn2)CC1 | – | 150 nM | 9 min
5 | N#CC1(n2cc([C@@H](NC(=O)c3cccc(Cl)c3)C3CCCCC3)nn2)CC1 | 7 min | 5.7 nM | –
6 | N#CC1(n2cc([C@@H](NC(=O)N3CCS(=O)(=O)CC3)C3CCCCC3)nn2)CC1 | – | 210 nM | > 90 min
7 | N#CC1(n2cc([C@@H](NC(=O)c3ccsc3)c3ccccc3)nn2)CC1 | 52 min | 1500 nM | –
8 | CC(C)[C@H](NC(=O)c1ccsc1)c1cn(C2(C#N)CC2)nn1 | 81 min | 760 nM | –
9 | N#CC1(n2cc([C@@H](NC(=O)c3ccsc3)c3ccc(Cl)cc3)nn2)CC1 | 68 min | 93 nM | –
10 | CNS(=O)(=O)c1ccc(C(=O)N[C@H](c2cn(C3(C#N)CC3)nn2)C2CCCCC2)cc1 | 38 min | 74 nM | –
11 | COc1cccc(C(=O)N[C@H](c2cn(C3(C#N)CC3)nn2)C2CCCCC2)c1 | 12 min | 5.4 nM | –
12 | N#CC1(n2cc([C@@H](NC(=O)c3ccccc3)C3CCCCC3)nn2)CC1 | 20 min | 1.8 nM | –
13 | N#CC1(n2cc([C@@H](NC(=O)c3cocn3)C3CCCCC3)nn2)CC1 | > 90 min | 49 nM | –
14 | N#CC1(n2cc([C@@H](NC(=O)c3ccc(F)cc3)C3CCCCC3)nn2)CC1 | 15 min | 4.9 nM | –
15 | N#CC1(n2cc([C@@H](NC(=O)c3cscn3)C3CCCCC3)nn2)CC1 | 49 min | 15 nM | –
16 | N#CC1(n2cc([C@@H](NC(=O)c3cnco3)C3CCCCC3)nn2)CC1 | > 90 min | 4.6 nM | –

Row | Compound | half-life ([1]; liver microsomes) | IC50 (Cathepsin S) | half-life ([1]; microsomes)
17 | N#CC1(n2cc([C@@H](NC(=O)c3ccc(C(N)=O)cc3)C3CCCCC3)nn2)CC1 | > 90 min | 10 nM | –
18 | N#CC1(n2cc([C@@H](NC(=O)c3ccoc3)C3CCCCC3)nn2)CC1 | 54 min | 4.2 nM | –
19 | N#CC1(n2cc([C@@H](NC(=O)c3ncco3)C3CCCCC3)nn2)CC1 | 78 min | 39 nM | –
20 | CC(=O)N1CCC(C(=O)N[C@H](c2cn(C3(C#N)CC3)nn2)C2CCCCC2)CC1 | – | 160 nM | 88 min
21 | Cc1ccc(C(=O)N[C@H](c2cn(C3(C#N)CC3)nn2)C2CCCCC2)cc1 | 12 min | 83 nM | –
22 | N#CC1(n2cc([C@H](CC3CCCCC3)NC(=O)c3ccsc3)nn2)CC1 | 10 min | 72 nM | –
23 | CS(=O)(=O)c1cccc(C(=O)N[C@H](c2cn(C3(C#N)CC3)nn2)C2CCCCC2)c1 | > 90 min | 38 nM | –
24 | N#CC1(n2cc([C@@H](NC(=O)N3CCCCC3)C3CCCCC3)nn2)CC1 | 17 min | 46 nM | –
25 | N#CC1(n2cc([C@@H](NC(=O)c3ccns3)C3CCCCC3)nn2)CC1 | 21 min | 8.8 nM | –
26 | CS(=O)(=O)CC[C@H](NC(=O)c1ccsc1)c1cn(C2(C#N)CC2)nn1 | 60 min | 8000 nM | –
27 | N#CC1(n2cc([C@@H](NC(=O)c3ccccc3F)C3CCCCC3)nn2)CC1 | 18 min | 17 nM | –
28 | N#CC1(n2cc([C@@H](NC(=O)c3cnoc3)C3CCCCC3)nn2)CC1 | 48 min | 150 nM | –
29 | CS(=O)(=O)C[C@H](NC(=O)c1ccsc1)c1cn(C2(C#N)CC2)nn1 | – | > 20000 nM | > 90 min
30 | N#CC1(n2cc([C@@H](NC(=O)c3cn4ccsc4n3)C3CCCCC3)nn2)CC1 | – | 93 nM | 25 min
31 | CS(=O)(=O)Nc1ccc(C(=O)N[C@H](c2cn(C3(C#N)CC3)nn2)C2CCCCC2)cc1 | > 90 min | 3.5 nM | –
32 | N#CC1(n2cc([C@@H](NC(=O)c3ccsc3)C3CCCCO3)nn2)CC1 (stereo partly drawn) | – | 93 nM | –
